# How the values were obtained:
# [1] = biological target: T1, Bradykinin-1 receptor (Homo sapiens (Human), UniProt P46663); assay: Receptor Binding Assay; settings: membranes from CHO-K1 cells overexpressing Bradykinin-1 receptor; 6 nM [3H]Kallidin (Des Arg10, Leu9); read-out: B1R Binding Ki
# Experimental: Binding assays were done with membranes from CHO-K1 cells overexpressing Bradykinin-1 receptor.
# For binding, Bradykinin-1 receptor antagonist compounds were added in various concentrations in 50 mM Tris pH 7.4, 5 mM MgCl2 together with 6 nM Kallidin (Des Arg^10, Leu^9), [3,4-Prolyl-3,4-^3H(N)] (PerkinElmer, 1.85-4.44 TBq/mmol) to 40 μg membrane protein containing approximately 1 fmol Bradykinin-1 receptor and incubated for 15 min at 27° C. To determine non-specific binding 10 μM Lys-(Des-Arg^9)-Bradykinin (Bachem) was added. Membranes were harvested through GF/B (glass fiber filter; PerkinElmer) plates, equilibrated with 0.5% polyethylenimine, air dried at 50° C. for 2 hr. Radioactivity was determined by counting in a topcounter (NXT Packard). Specific binding was defined as total binding minus nonspecific binding and typically represents about 90-95% of the total binding. Antagonist activity is expressed as Ki: inhibitor concentration required for 50% inhibition of specific binding corrected for the concentration of the radioligand.
# [2] = biological target: T1, Bradykinin-1 receptor; assay: Calcium Mobilization Assay; assay type: cell-based; settings: GeneBLAzer Bradykinin (B1)-NFAT-bla CHO-K1 cells; antagonist activity, FLIPR; read-out: Ca mobilization IC50
# Experimental: Calcium Mobilization Assay
# GeneBLAzer® Bradykinin (B1)-NFAT-bla CHO-K1 cells (from Invitrogen) stably overexpressing the human bradykinin 1 receptor were cultured in DMEM (high glucose) supplemented with 10% dialysed FBS, 1% NEAA (non essential amino acids) 1% penicillin/streptomycin, 1% G418 and 0.1 mg/ml zeocin.
# For the assay cells were grown overnight in 384-well black clear flat bottom polystyrene plates (Costar) at 37° C. at 5% CO2. After washing with DMEM, 20 mM Hepes, 2.5 mM probenecid, 0.1% BSA (DMEM assay buffer) cells were loaded with 4 μM Fluo-4 in the same DMEM assay buffer for 2 hours at 30° C. Excess dye was removed and cells were washed with DMEM assay buffer. 384-well compound plates were prepared with DMEM assay buffer/0.5% DMSO with or without various concentrations of test compounds. Usually compounds were tested for agonist and antagonist activity.
# Test compounds were added to the assay plate and agonist activity was monitored as fluorescence for 80 seconds with a FLIPR (488 nm excitation; 510-570 nm emission; Molecular Devices). […] Increases in intracellular calcium are reported as maximum fluorescence after agonist exposure minus basal fluorescence before exposure. Antagonist activity is indicated as inhibitor concentration required for 50% inhibition of specific calcium increases.
# T1 sequence (P46663 whole entry): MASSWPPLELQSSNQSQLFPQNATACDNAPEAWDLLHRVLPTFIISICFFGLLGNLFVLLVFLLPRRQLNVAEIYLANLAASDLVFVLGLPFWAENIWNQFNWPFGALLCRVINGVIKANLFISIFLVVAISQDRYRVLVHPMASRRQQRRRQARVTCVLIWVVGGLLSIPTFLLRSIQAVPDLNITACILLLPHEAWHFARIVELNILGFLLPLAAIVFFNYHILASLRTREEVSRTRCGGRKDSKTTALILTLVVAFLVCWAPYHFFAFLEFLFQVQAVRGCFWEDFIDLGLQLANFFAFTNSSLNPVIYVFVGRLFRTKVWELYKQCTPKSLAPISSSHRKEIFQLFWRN
Ki [1],IC50 [2],SMILES
4.3 nM,1 nM,"C[C@@H](NC(=O)C1(NC(=O)C(F)(F)F)COC1)c1ncc(-c2cc(Cl)cc(F)c2-c2nnn(C)n2)cc1F [Example 21, 3-(2,2,2-Trifluoro-acetylamino)-oxetane-3-carboxylic acid ((R)-1-{5-[5-chloro-3-fluoro-2-(2-methyl-2H-tetrazol-5-yl)-phenyl]-3-fluoro-pyridin-2-yl}-ethyl)-amide]"
1.7 nM,0.5 nM,"C[C@@H](NC(=O)C1(NC(=O)C(F)(F)F)COC1)c1ccc(-c2cc(Cl)cc(F)c2-c2nnn(C)n2)cc1F [Example 22, 3-(2,2,2-Trifluoro-acetylamino)-oxetane-3-carboxylic acid {(R)-1-[5′-chloro-3,3′-difluoro-2′-(2-methyl-2H-tetrazol-5-yl)-biphenyl-4-yl]-ethyl}-amide]"
1 nM,0.1 nM,"Cc1cc(C(=O)NC2(C(=O)N[C@H](C)c3ccc(-c4cc(Cl)cc(F)c4-c4nnn(C)n4)cc3F)COC2)on1 [Example 23, 3-Methyl-isoxazole-5-carboxylic acid (3-{(R)-1-[5′-chloro-3,3′-difluoro-2′-(2-methyl-2H-tetrazol-5-yl)-biphenyl-4-yl]-ethylcarbamoyl}-oxetan-3-yl)-amide]"
1.2 nM,0.1 nM,"Cc1cc(C(=O)NC2(C(=O)N[C@H](C)c3ccc(-c4cc(Cl)cc(F)c4-c4noc(C)n4)cc3F)COC2)on1 [Example 24, 3-Methyl-isoxazole-5-carboxylic acid (3-{(R)-1-[5′-chloro-3,3′-difluoro-2′-(5-methyl-[1,2,4]oxadiazol-3-yl)-biphenyl-4-yl]-ethylcarbamoyl}-oxetan-3-yl)-amide]"
1 nM,0.4 nM,"Cc1nc(-c2c(F)cc(Cl)cc2-c2cnc([C@@H](C)NC(=O)C3(NC(=O)c4ccnnc4)COC3)c(F)c2)no1 [Example 25, Pyridazine-4-carboxylic acid [3-((R)-1-{5-[5-chloro-3-fluoro-2-(5-methyl-[1,2,4]oxadiazol-3-yl)-phenyl]-3-fluoro-pyridin-2-yl}-ethylcarbamoyl)-oxetan-3-yl]-amide]"
503 nM,490 nM,"Cc1nc(-c2c(F)cc(Cl)cc2-c2cnc([C@@H](C)NC(=O)C3(NC(=O)c4nccn4C)COC3)c(F)c2)no1 [Example 26, 1-Methyl-1H-imidazole-2-carboxylic acid [3-((R)-1-{5-[5-chloro-3-fluoro-2-(5-methyl-[1,2,4]oxadiazol-3-yl)-phenyl]-3-fluoro-pyridin-2-yl}-ethylcarbamoyl)-oxetan-3-yl]-amide]"
82.6 nM,107 nM,"Cc1nc(-c2c(F)cc(Cl)cc2-c2cnc([C@@H](C)NC(=O)C3(NC(=O)c4cn(C)cn4)COC3)c(F)c2)no1 [Example 27, 1-Methyl-1H-imidazole-4-carboxylic acid [3-((R)-1-{5-[5-chloro-3-fluoro-2-(5-methyl-[1,2,4]oxadiazol-3-yl)-phenyl]-3-fluoro-pyridin-2-yl}-ethylcarbamoyl)-oxetan-3-yl]-amide]"
1.4 nM,0.1 nM,"Cc1nc(-c2c(F)cc(Cl)cc2-c2cnc([C@@H](C)NC(=O)C3(NC(=O)c4cncc(N)c4)COC3)c(F)c2)no1 [Example 28, 5-Amino-N-[3-((R)-1-{5-[5-chloro-3-fluoro-2-(5-methyl-[1,2,4]oxadiazol-3-yl)-phenyl]-3-fluoro-pyridin-2-yl}-ethylcarbamoyl)-oxetan-3-yl]-nicotinamide]"
14.1 nM,9.4 nM,"Cc1nc(-c2c(F)cc(Cl)cc2-c2cnc([C@@H](C)NC(=O)C3(NC(=O)c4cccnn4)COC3)c(F)c2)no1 [Example 29, Pyridazine-3-carboxylic acid [3-((R)-1-{5-[5-chloro-3-fluoro-2-(5-methyl-[1,2,4]oxadiazol-3-yl)-phenyl]-3-fluoro-pyridin-2-yl}-ethylcarbamoyl)-oxetan-3-yl]-amide]"
1.3 nM,0.2 nM,"Cc1nc(-c2c(F)cc(Cl)cc2-c2cnc([C@@H](C)NC(=O)C3(NC(=O)c4cccnc4)COC3)c(F)c2)no1 [Example 30, N-[3-((R)-1-{5-[5-Chloro-3-fluoro-2-(5-methyl-[1,2,4]oxadiazol-3-yl)-phenyl]-3-fluoro-pyridin-2-yl}-ethylcarbamoyl)-oxetan-3-yl]-nicotinamide]"
0.6 nM,< 0.032 nM,"COc1ncc(C(=O)NC2(C(=O)N[C@H](C)c3ccc(-c4cc(Cl)cc(F)c4-c4noc(C)n4)cc3F)COC2)cn1 [Example 31, 2-Methoxy-pyrimidine-5-carboxylic acid (3-{(R)-1-[5′-chloro-3,3′-difluoro-2′-(5-methyl-[1,2,4]oxadiazol-3-yl)-biphenyl-4-yl]-ethylcarbamoyl}-oxetan-3-yl)-amide]"
2.3 nM,0.2 nM,"C[C@@H](NC(=O)C1(NC(=O)c2ccno2)COC1)c1ccc(-c2cc(Cl)cc(Cl)c2OCC(F)F)cc1F [Example 32, Isoxazole-5-carboxylic acid (3-{(R)-1-[3′,5′-dichloro-2′-(2,2-difluoro-ethoxy)-3-fluoro-biphenyl-4-yl]-ethylcarbamoyl}-oxetan-3-yl)-amide]"
19.9 nM,5.3 nM,"C[C@@H](NC(=O)C1(NC(=O)C(F)(F)F)COC1)c1ccc(-c2cc(Cl)cc(Cl)c2OCC(F)F)cc1F [Example 33, 3-(2,2,2-Trifluoro-acetylamino)-oxetane-3-carboxylic acid {(R)-1-[3′,5′-dichloro-2′-(2,2-difluoro-ethoxy)-3-fluoro-biphenyl-4-yl]-ethyl}-amide]"
2.2 nM,0.4 nM,"COc1cc(C(=O)NC2(C(=O)N[C@H](C)c3ncc(-c4cc(Cl)cc(F)c4-c4nnn(C)n4)cc3F)COC2)on1 [Example 34, 3-Methoxy-isoxazole-5-carboxylic acid [3-((R)-1-{5-[5-chloro-3-fluoro-2-(2-methyl-2H-tetrazol-5-yl)-phenyl]-3-fluoro-pyridin-2-yl}-ethylcarbamoyl)-oxetan-3-yl]-amide]"
3.3 nM,0.3 nM,"COc1ncc(C(=O)NC2(C(=O)N[C@H](C)c3ccc(-c4cc(Cl)cc(Cl)c4OCC(F)F)cc3F)COC2)cn1 [Example 35, 2-Methoxy-pyrimidine-5-carboxylic acid (3-{(R)-1-[3′,5′-dichloro-2′-(2,2-difluoro-ethoxy)-3-fluoro-biphenyl-4-yl]-ethylcarbamoyl}-oxetan-3-yl)-amide]"
1.2 nM,0.2 nM,"COc1ncc(C(=O)NC2(C(=O)N[C@H](C)c3ncc(-c4cc(Cl)cc(F)c4-c4nnn(C)n4)cc3F)COC2)cn1 [Example 36, 2-Methoxy-pyrimidine-5-carboxylic acid [3-((R)-1-{5-[5-chloro-3-fluoro-2-(2-methyl-2H-tetrazol-5-yl)-phenyl]-3-fluoro-pyridin-2-yl}-ethylcarbamoyl)-oxetan-3-yl]-amide]"
3.5 nM,0.4 nM,"COc1cc(C(=O)NC2(C(=O)N[C@H](C)c3ccc(-c4cc(Cl)cc(Cl)c4OCC(F)F)cc3F)COC2)on1 [Example 37, 3-Methoxy-isoxazole-5-carboxylic acid (3-{(R)-1-[3′,5′-dichloro-2′-(2,2-difluoro-ethoxy)-3-fluoro-biphenyl-4-yl]-ethylcarbamoyl}-oxetan-3-yl)-amide]"
4.3 nM,0.6 nM,"Cc1nnc(C(=O)NC2(C(=O)N[C@H](C)c3ccc(-c4cc(Cl)cc(Cl)c4OCC(F)F)cc3F)COC2)o1 [Example 38, 5-Methyl-[1,3,4]oxadiazole-2-carboxylic acid (3-{(R)-1-[3′,5′-dichloro-2′-(2,2-difluoro-ethoxy)-3-fluoro-biphenyl-4-yl]-ethylcarbamoyl}-oxetan-3-yl)-amide]"
8.7 nM,3.9 nM,"Cc1nnc(C(=O)NC2(C(=O)N[C@H](C)c3ncc(-c4cc(Cl)cc(Cl)c4OCC(F)F)cc3F)COC2)o1 [Example 39, 5-Methyl-[1,3,4]oxadiazole-2-carboxylic acid [3-((R)-1-{5-[3,5-dichloro-2-(2,2-difluoro-ethoxy)-phenyl]-3-fluoro-pyridin-2-yl}-ethylcarbamoyl)-oxetan-3-yl]-amide]"
1.1 nM,0.1 nM,"COc1ncc(C(=O)NC2(C(=O)N[C@H](C)c3ncc(-c4cc(Cl)cc(Cl)c4OCC(F)F)cc3F)COC2)cn1 [Example 40, 2-Methoxy-pyrimidine-5-carboxylic acid [3-((R)-1-{5-[3,5-dichloro-2-(2,2-difluoro-ethoxy)-phenyl]-3-fluoro-pyridin-2-yl}-ethylcarbamoyl)-oxetan-3-yl]-amide]"
